In US20250215029A1 (Recludix Pharma, Inc., priority 2022, published 2025) one finds IC50 data, which are given here for 16 compounds.

Broadly, the IC50 is the point on the concentration scale where inhibition reaches its midpoint.

Where only a bound is given, the exact number is not on record here.

Assay [1] addresses T1, Recombinant STAT3 protein (STAT3 (G127-I722)) (Homo sapiens, UniProt P40763).
T1 construct: Recombinant STAT3 protein (STAT3 (G127-I722))
As to the kind of experiment: STAT3 Fluorescence Polarization (FP) Assay. It counts as binding. Particulars: STAT3 (G127-I722) 25 nM, probe 5-FAM-GpYLPQTV-NH2 2 nM, 45-minute incubation; read-out: STAT3 (FP assay IC50 class). In a few lines: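 Read-out is fluorescence polarization (mP) after 45 min at room temperature, with IC50 fitted by nonlinear regression against log compound concentration. Mixture: 25 nM STAT3 (G127-I722), 2 nM 5-FAM-GpYLPQTV-NH2 phosphopeptide, 10 mM HEPES pH 7.4 buffer, 1% DMSO.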
A general note: Fluorescence polarisation rises when a labelled molecule tumbles more slowly, as on binding a larger partner.

Assay [2] addresses T2, Recombinant STAT6 protein (STAT6 (W123-T658)) (Homo sapiens, UniProt P42226).
T2 construct: Recombinant STAT6 protein (STAT6 (W123-T658))
T2 sequence (P42226 123-658): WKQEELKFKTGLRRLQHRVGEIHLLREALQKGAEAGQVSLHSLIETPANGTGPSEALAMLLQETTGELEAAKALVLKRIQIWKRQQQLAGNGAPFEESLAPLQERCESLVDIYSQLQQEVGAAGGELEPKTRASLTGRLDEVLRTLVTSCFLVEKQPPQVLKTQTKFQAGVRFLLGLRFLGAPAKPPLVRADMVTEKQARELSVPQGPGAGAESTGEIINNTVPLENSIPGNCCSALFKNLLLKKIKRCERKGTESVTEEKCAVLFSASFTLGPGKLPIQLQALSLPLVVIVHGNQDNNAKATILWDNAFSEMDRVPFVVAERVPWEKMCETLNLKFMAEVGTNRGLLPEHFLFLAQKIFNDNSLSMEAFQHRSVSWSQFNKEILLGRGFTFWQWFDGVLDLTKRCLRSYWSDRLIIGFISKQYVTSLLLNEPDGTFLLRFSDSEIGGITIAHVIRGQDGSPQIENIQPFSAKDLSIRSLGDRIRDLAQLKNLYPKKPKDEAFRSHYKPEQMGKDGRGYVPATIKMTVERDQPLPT
Put plainly: STAT6 Fluorescence Polarization (FP) Assay. Particulars: STAT6 (W123-T658) 250 nM, probe 5-FAM-Ap[…]-NH2 2 nM, 45-minute incubation; read-out: STAT6 (FP assay IC50 class). In kind it is binding. In a few lines:
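Recombinant STAT6 (W123-T658) at 250 nM mixed with 2 nM 5-FAM phosphotyrosine peptide probe in HEPES pH 7.4 buffer with DTT, 1% DMSO final, added to serially diluted compounds. FP (mP) read after 45 min at room temperature; IC50 by nonlinear regression vs log concentration.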

T1 sequence (P40763 127-722): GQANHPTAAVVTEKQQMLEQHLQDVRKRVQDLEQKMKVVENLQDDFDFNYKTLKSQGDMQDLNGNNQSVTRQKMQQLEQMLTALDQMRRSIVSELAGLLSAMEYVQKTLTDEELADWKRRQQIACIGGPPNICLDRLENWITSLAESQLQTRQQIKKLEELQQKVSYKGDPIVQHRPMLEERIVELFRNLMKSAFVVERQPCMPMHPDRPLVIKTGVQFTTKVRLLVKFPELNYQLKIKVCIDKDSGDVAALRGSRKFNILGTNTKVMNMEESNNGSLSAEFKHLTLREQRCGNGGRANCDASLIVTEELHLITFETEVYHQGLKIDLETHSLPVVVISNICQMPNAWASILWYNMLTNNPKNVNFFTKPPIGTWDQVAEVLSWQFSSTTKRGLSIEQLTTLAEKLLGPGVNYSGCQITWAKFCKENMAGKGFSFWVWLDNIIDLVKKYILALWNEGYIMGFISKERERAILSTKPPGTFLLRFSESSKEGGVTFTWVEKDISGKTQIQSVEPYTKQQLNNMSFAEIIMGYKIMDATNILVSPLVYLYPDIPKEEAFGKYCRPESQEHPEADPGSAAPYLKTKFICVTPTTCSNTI

Turning to `O=C(N[C@H]1CCCC[C@H]2CC[C@@H](C(=O)N3CCC(c4ncncc4F)CC3)N2C1=O)c1cc2cc(C(F)P(=O)(O)O)ccc2s1` (stereo partly drawn) [Compound 588, (fluoro(2-(((3S,6S,10aS)-3-(4-(5-fluoropyrimidin-4-yl)piperidine-1-carbonyl)-5-oxodecahydropyrrolo[1,2-a]azocin-6-yl)carbamoyl)benzo[b]thiophen-5-yl)methyl)phosphonic acid], the IC50 fell in the range of 1 to 10 µM in assay [1] and 3 to 30 µM in assay [2].
The corresponding values for `O=C(N[C@H]1CCCC[C@H]2CC[C@@H](C(=O)N3CCC(c4cc[nH]n4)CC3)N2C1=O)c1cc2cc(C(F)P(=O)(O)O)ccc2s1` (stereo partly drawn) [Compound 589, ((2-(((3S,6S,10aS)-3-(4-(1H-pyrazol-3-yl)piperidine-1-carbonyl)-5-oxodecahydropyrrolo[1,2-a]azocin-6-yl)carbamoyl)benzo[b]thiophen-5-yl)fluoromethyl)phosphonic acid] are 1 to 10 µM and 3 to 30 µM.
On to `O=C(N[C@H]1CCCC[C@H]2CC[C@@H](C(=O)N3CCC(c4ccncn4)CC3)N2C1=O)c1cc2cc(C(F)P(=O)(O)O)ccc2s1` (stereo partly drawn) [Compound 590, (fluoro(2-(((3S,6S,10aS)-5-oxo-3-(4-(pyrimidin-4-yl)piperidine-1-carbonyl)decahydropyrrolo[1,2-a]azocin-6-yl)carbamoyl)benzo[b]thiophen-5-yl)methyl)phosphonic acid], for which the IC50 in assay [1] lay in the range of 1 to 10 µM; in assay [2] it was 3 to 30 µM.
Consider `O=C(N[C@H]1CCC[C@H]2CC[C@@H](C(=O)N3CCC(c4n[nH]cc4F)CC3)N2C1=O)c1cc2cc(C(F)P(=O)(O)O)ccc2s1` (stereo partly drawn) [Compound 591, (fluoro(2-(((3S,6S,9aS)-3-(4-(4-fluoro-1H-pyrazol-3-yl)piperidine-1-carbonyl)-5-oxooctahydro-1H-pyrrolo[1,2-a]azepin-6-yl)carbamoyl)benzo[b]thiophen-5-yl)methyl)phosphonic acid], for which the IC50 was 1 to 10 µM in assay [1] and 3 to 30 µM in assay [2].
Taken in the same sequence, the figures for `O=C(N[C@H]1CCC[C@H]2CC[C@@H](C(=O)N3CC(c4cc(F)ccc4F)C3)N2C1=O)c1cc2cc(C(F)P(=O)(O)O)ccc2s1` (stereo partly drawn) [Compound 592, ((2-(((3S,6S,9aS)-3-(3-(2,5-difluorophenyl)azetidine-1-carbonyl)-5-oxooctahydro-1H-pyrrolo[1,2-a]azepin-6-yl)carbamoyl)benzo[b]thiophen-5-yl)fluoromethyl)phosphonic acid] were 0.1 to 1 µM and 3 to 30 µM.
With `COc1cc(C(F)F)ncc1C1CN(C(=O)[C@@H]2CC[C@@H]3CCC[C@H](NC(=O)c4cc5cc(CP(=O)(O)O)ccc5s4)C(=O)N32)C1` [Compound 593, ((2-(((3S,6S,9aS)-3-(3-(6-(difluoromethyl)-4-methoxypyridin-3-yl)azetidine-1-carbonyl)-5-oxooctahydro-1H-pyrrolo[1,2-a]azepin-6-yl)carbamoyl)benzo [b]thiophen-5-yl)methyl) phosphonic acid], the IC50 is 1 to 10 µM in assay [1] and 3 to 30 µM in assay [2].
Taken in the same sequence, the figures for `COc1ccnc(C(F)F)c1C1CN(C(=O)[C@@H]2CC[C@@H]3CCC[C@H](NC(=O)c4cc5cc(CP(=O)(O)O)ccc5s4)C(=O)N32)C1` [Compound 594, ((2-(((3S,6S,9aS)-3-(3-(2-(difluoromethyl)-4-methoxypyridin-3-yl)azetidine-1-carbonyl)-5-oxooctahydro-1H-pyrrolo[1,2-a]azepin-6-yl)carbamoyl)benzo [b]thiophen-5-yl)methyl) phosphonic acid] were 1 to 10 µM and 3 to 30 µM.
Consider `O=C(N[C@H]1CCC[C@H]2CC[C@@H](C(=O)N3CC(c4n[nH]cc4F)C3)N2C1=O)c1cc2cc(C(F)P(=O)(O)O)ccc2s1` (stereo partly drawn) [Compound 595, (fluoro(2-(((3S,6S,9aS)-3-(3-(4-fluoro-1H-pyrazol-3-yl)azetidine-1-carbonyl)-5-oxooctahydro-1H-pyrrolo[1,2-a]azepin-6-yl)carbamoyl)benzo [b]thiophen-5-yl)methyl) phosphonic acid], for which the IC50 lay in the range of 0.1 to 1 µM in assay [1] and 3 to 30 µM in assay [2].
The corresponding values for `O=C(N[C@H]1CCC[C@H]2CC[C@@H](C(=O)N3CC(c4cncc(F)c4)C3)N2C1=O)c1cc2cc(C(F)P(=O)(O)O)ccc2s1` (stereo partly drawn) [Compound 596, (fluoro(2-(((3S,6S,9aS)-3-(3-(5-fluoropyridin-3-yl)azetidine-1-carbonyl)-5-oxooctahydro-1H-pyrrolo[1,2-a]azepin-6-yl)carbamoyl)benzo [b]thiophen-5-yl)methyl) phosphonic acid] are 0.1 to 1 µM and 3 to 30 µM.
`CCOc1ccncc1C1CN(C(=O)[C@@H]2CC[C@@H]3CCC[C@H](NC(=O)c4cc5cc(C(F)P(=O)(O)O)ccc5s4)C(=O)N32)C1` (stereo partly drawn) [Compound 597, ((2-(((3S,6S,9aS)-3-(3-(4-ethoxypyridin-3-yl)azetidine-1-carbonyl)-5-oxooctahydro-1H-pyrrolo[1,2-a]azepin-6-yl)carbamoyl)benzo [b]thiophen-5-yl)fluoromethyl) phosphonic acid]: the figures for the IC50 in assay [1] and in assay [2] were below 0.1 µM and 3 to 30 µM, respectively.
Taken in the same sequence, the figures for `O=C(N[C@H]1CCC[C@H]2CC[C@@H](C(=O)N3CC(c4cnccc4OC4COC4)C3)N2C1=O)c1cc2cc(C(F)P(=O)(O)O)ccc2s1` (stereo partly drawn) [Compound 598, (fluoro(2-(((3S,6S,9aS)-3-(3-(4-(oxetan-3-yloxy)pyridin-3-yl)azetidine-1-carbonyl)-5-oxooctahydro-1H-pyrrolo[1,2-a]azepin-6-yl)carbamoyl)benzo [b]thiophen-5-yl)methyl) phosphonic acid] were below 0.1 µM and 3 to 30 µM.
The corresponding values for `O=C(N[C@H]1CCCC[C@H]2CC[C@@H](C(=O)N3C(=O)N(c4cccc5c4OC(F)(F)O5)C(=O)C34CC4)N2C1=O)c1cc2cc(C(F)P(=O)(O)O)ccc2s1` (stereo partly drawn) [Compound 601, ((2-(((3S,6S,10aS)-3-(6-(2,2-difluorobenzo[d][1, 3]dioxol-4-yl)-5,7-dioxo-4,6-diazaspiro[2.4]heptane-4-carbonyl)-5-oxodecahydropyrrolo [1,2-a]azocin-6-yl)carbamoyl)benzo [b]thiophen-5-yl)fluoromethyl) phosphonic acid] are 1 to 10 µM and at most 0.3 µM.
The corresponding values for `CC1C(c2cccnc2)CN1C(=O)[C@@H]1CC[C@@H]2CCC[C@H](NC(=O)c3cc4cc(C(F)P(=O)(O)O)ccc4s3)C(=O)N21` (stereo partly drawn) [Compound 602, (fluoro(2-(((3S,6S,9aS)-3-(2-methyl-3-(pyridin-3-yl)azetidine-1-carbonyl)-5-oxooctahydro-1H-pyrrolo[1,2-a]azepin-6-yl)carbamoyl)benzo [b]thiophen-5-yl)methyl) phosphonic acid] are below 0.1 µM and 3 to 30 µM.
As for `C[C@@H]1CC[C@H](NC(=O)c2cc3cc(CP(=O)(O)O)ccc3s2)C(=O)N2[C@H](CC[C@H]2C(=O)N2CC(c3cnccc3F)C2)C1` [Compound 603, ((2-(((3S,6S,9R,10aR)-3-(3-(4-fluoropyridin-3-yl)azetidine-1-carbonyl)-9-methyl-5-oxodecahydropyrrolo [1,2-a]azocin-6-yl)carbamoyl)benzo [b]thiophen-5-yl)methyl) phosphonic acid], the figures for the IC50 in assay [1] and in assay [2] were below 0.1 µM and 3 to 30 µM, respectively.
Taken in the same sequence, the figures for `O=C(N[C@H]1CCC[C@H]2CC[C@@H](C(=O)N3CCC(c4ccncn4)CC3)N2C1=O)c1cc2cc(C(F)P(=O)(O)O)ccc2s1` (stereo partly drawn) [Compound 604, (fluoro(2-(((3S,6S,9aS)-5-oxo-3-(4-(pyrimidin-4-yl)piperidine-1-carbonyl)octahydro-1H-pyrrolo[1,2-a]azepin-6-yl)carbamoyl)benzo [b]thiophen-5-yl)methyl) phosphonic acid] were 0.1 to 1 µM and 3 to 30 µM.
Taken in the same sequence, the figures for `O=C(N[C@H]1CCC[C@H]2CC[C@@H](C(=O)N3CC(c4cncnc4O)C3)N2C1=O)c1cc2cc(CP(=O)(O)O)ccc2s1` [Compound 605, ((2-(((3S,6S,9aS)-3-(3-(4-hydroxypyrimidin-5-yl)azetidine-1-carbonyl)-5-oxooctahydro-1H-pyrrolo[1,2-a]azepin-6-yl)carbamoyl)benzo [b]thiophen-5-yl)methyl) phosphonic acid] were below 0.1 µM and 3 to 30 µM.
